Measurements from PubChem BioAssay (NCI).
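Each compound was tested at five concentrations against cells in 96-well plates for 48 hours. TGI: concentration producing complete growth inhibition.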

What was measured:
Test in all cases: NCI anticancer screen, dose series, 48 h
EKVX NSCLC = tested on: EKVX NSCLC
HOP-92 NSCLC = tested on: HOP-92 NSCLC
LOX IMVI melanoma = tested on: LOX IMVI melanoma
MALME-3M melanoma = tested on: MALME-3M melanoma
MCF7 breast = tested on: MCF7 breast
MDA-MB-435 = tested on: MDA-MB-435
OVCAR-8 ovarian = tested on: OVCAR-8 ovarian
SF-295 CNS = tested on: SF-295 CNS
SK-MEL-2 melanoma = tested on: SK-MEL-2 melanoma
SK-MEL-5 melanoma = tested on: SK-MEL-5 melanoma
SNB-75 CNS = tested on: SNB-75 CNS
T-47D breast = tested on: T-47D breast
UACC-62 melanoma = tested on: UACC-62 melanoma

SMILES | TGI (EKVX NSCLC) | TGI (HOP-92 NSCLC) | TGI (LOX IMVI melanoma) | TGI (MALME-3M melanoma) | TGI (MCF7 breast) | TGI (MDA-MB-435) | TGI (OVCAR-8 ovarian) | TGI (SF-295 CNS) | TGI (SK-MEL-2 melanoma) | TGI (SK-MEL-5 melanoma) | TGI (SNB-75 CNS) | TGI (T-47D breast) | TGI (UACC-62 melanoma)
C=CCC1NCCC2=C1C(S(=O)(=O)c1ccc(C)cc1)c1ccccc12 (stereo unspecified) | 33.5 µM | 25.7 µM | 23.1 µM | 24 µM | 22 µM | 17.5 µM | 30.5 µM | 27.1 µM | 27.1 µM | 27.6 µM | 18.9 µM | 26.1 µM | 24.6 µM
Clc1ccc(OCC2NC3C=CC32)cn1 (stereo unspecified) | 93.7 µM | > 100 µM | > 100 µM | > 100 µM | > 100 µM | > 100 µM | > 100 µM | > 100 µM | > 100 µM | > 100 µM | > 100 µM | > 100 µM | > 100 µM
c1ccc([C@H]2CN3CCSC3=N2)cc1 | > 100 µM | > 100 µM | > 100 µM | > 100 µM | > 100 µM | > 100 µM | > 100 µM | > 100 µM | > 100 µM | > 100 µM | > 100 µM | > 100 µM | > 100 µM
C=C(C)CC1=C(C(=S)NCCO[Si](C)(C)C(C)(C)C)C(OCC)(OCC)C1=O | 34.4 µM | > 100 µM | 56.9 µM | 27.1 µM | 35.9 µM | 41.9 µM | > 100 µM | 33.1 µM | 34.4 µM | 51 µM | 36.8 µM | 35.4 µM | 33.4 µM
COC(=O)C1(NC(=O)C(N)CC(=O)O)C(C)C1C (stereo unspecified) | > 100 µM | > 100 µM | > 100 µM | > 100 µM | > 100 µM | > 100 µM | > 100 µM | > 100 µM | > 100 µM | > 100 µM | > 100 µM | > 100 µM | > 100 µM
NCCCCNCCCN | > 100 µM | > 100 µM | > 100 µM | > 100 µM | > 100 µM | > 100 µM | > 100 µM | > 100 µM | > 100 µM | > 100 µM | > 100 µM | > 100 µM | > 100 µM
C[C@H](CC[C@@H](O)C(C)(C)O)[C@H]1CC[C@@]2(C)[C@@H]3CC=C4[C@@H](CC[C@H](OC5OC(CO)C(O)C(O)C5O)C4(C)C)[C@]3(C)C(=O)C[C@]12C (stereo partly specified) | > 100 µM | > 100 µM | > 100 µM | > 100 µM | > 100 µM | > 100 µM | > 100 µM | > 100 µM | 69.6 µM | > 100 µM | > 100 µM | > 100 µM | > 100 µM
